Assay results published in publication PMC5996997 (Journal of medicinal chemistry, 2017).
“Also recorded” adds a separate entry of the source.

What was measured:
PDK2 [1] = target: T1, PDK2 (Homo sapiens, UniProt Q15119); assay: Isothermal titration calorimetry; conditions: ITC, binding to PDK2
[2] = tested on: phosphorylated E1α subunit (pE1); assay: Western blot of phosphorylated E1α in liver homogenates of treated DIO mice; format: in vivo, C57BL/6J male mice (DIO); conditions: 40–45 mg/kg/day by osmotic mini-pumps, two weeks
[3] = tested on: diet-induced obese (DIO) mice; assay: Glucose tolerance test in DIO mice; format: in vivo, C57BL/6J male mice (DIO); conditions: 40–45 mg/kg/day, two weeks, p <0.05 at 20, 30, 60 and 120 min
PDK2 [4] = target: T1, PDK2
PDC activity = PDC activity in tissues of treated diet-induced obese mice; format: in vivo, C57BL/6J male mice (DIO); conditions: DIO mice, 40–45 mg/kg/day by osmotic mini-pumps, two weeks
[5] = tested on: diet-induced obese (DIO) mice; assay: Oil Red O stain of liver slices; format: in vivo, C57BL/6J male mice (DIO); conditions: 40–45 mg/kg/day by mini pumps, two weeks
[6] = 17 at 30 mg/kg vs 2 at 70 mg/kg IP

## O=S(=O)(c1ccc(O)cc1O)N1Cc2ccc(O)cc2C1 [Compound 1, 4-((5-hydroxyisoindolin-2-yl)sulfonyl)benzene-1,3-diol]
PDK2 [1]
  –TΔS: 5.54 kcal/mol

## O=S(=O)(c1ccc(O)cc1O)N1Cc2ccc(NC3CCNCC3)cc2C1 [Compound 5, 4-((5-(piperidin-4-ylamino)isoindolin-2-yl)sulfonyl)benzene-1,3-diol]
PDK2 [1]
  –TΔS: 4.64 kcal/mol

## NC(=O)C[C@H](N)C(=O)N1CCC(Nc2ccc3c(c2)CN(S(=O)(=O)c2ccc(O)cc2O)C3)CC1 [Compound 17, (S)-3-amino-4-(4-((2-((2,4-dihydroxyphenyl)sulfonyl)isoindolin-5-yl)amino)piperidin-1-yl)-4-oxobutanamide]
[2]
  phosphorylation of the E1α subunit (pE1) in the liver homogenate: decreased phosphorylation
PDK2 [1]
  gain in enthalpy change (ΔH) compared to 5: 3.4 kcal/mol
  loss in entropy compared to 5: 2.7 kcal/mol
[3]
  glucose tolerance over vehicle-treated mice: increases glucose tolerance
PDK2 [4]; PDK2, relative to 2
  fold lower IC50 than 2: ~ 8 fold
PDK2 [4]; PDK2, relative to 5
  fold better IC50 than 5: 3.4 fold
PDC activity
  PDC activation in heart and muscle: no PDC activation
  increase of PDC activity in liver compared to the vehicle control: about 6 fold
[5]
  hepatic fat / steatosis (Oil Red O): drastically reduced hepatic steatosis; also recorded: microvesicular
[6]
  fold higher AUClast in liver than 2: > 10 fold
  fold lower AUClast in muscle than 2: > 10 fold
  fold slower unit-time clearance (CL/F) in liver than 2: > 30 fold

## Nc1ccc2c(c1)CN(S(=O)(=O)c1ccc(O)cc1O)C2 [Compound 3]
PDK2 [4]; PDK2, relative to 1
  fold higher IC50 than 1: 2 fold

## O=S(=O)(c1ccc(O)cc1O)N1Cc2cc(O)cc(O)c2C1 [Compound 2, 2-((2,4-dihydroxyphenyl)sulfonyl)isoindoline-4,6-diol]
PDK2 [1]
  –TΔS: 6.57 kcal/mol
